# Assay results: article PMC5424428, “Characteristics of L-citrulline transport through blood-brain barrier in the brain capillary endothelial cell line (TR-BBB cells)” (Journal of Biomedical Science, 2017)
# Values joined by “and” are separate entries in the source; they are usually repeats but may differ in a detail not shown here. Identical values can stand only once. “Also recorded” adds a separate entry of the source. Like-named read-outs stand apart in the source and are kept apart here.
# Tests used:
# [1] = tested on: TR-BBB cells; assay: Inhibition of [14C]L-citrulline uptake in TR-BBB cells by unlabeled amino acids, transporter inhibitors and drugs; assay type: cell-based, rat; settings: for activity at 2000 µM / activity at 20000 µM / IC50: Rattus norvegicus; for activity at 2000 µM / activity at 20000 µM / Ki / IC50 / Uptake of [14C]L-citrulline (% of control): 5 min; for Effect on [14C]L-citrulline uptake: unlabeled compound present; for Decrease of [14C]L-citrulline uptake: discussion of Table 3; for Mode of inhibition of [14C]L-citrulline uptake / Ki: Lineweaver-Burk plot; for Ki: 300 μM inhibitor
# Protocol: (§1) The TR-BBB cells established from transgenic rats harboring the temperature-sensitive simian virus 40 large T-antigen, an in vitro BBB model, were cultured at 33 °C as described previously (21). TR-BBB cells were received from Professor Tetsuya Terasaki (Tohoku University, Japan) and were cultured with Dulbecco’s modified Eagle’s medium (Invitrogen, San Diego, CA), supplemented with 10% fetal bovine serum, 100 U/mL penicillin, 100 μg/mL streptomycin (Invitrogen, San Diego, CA) and 15 μg/L endothelial cell growth factor (Roche, Mannheim, Germany) at 33 °C in a humidified atmosphere of 5% CO2/air. On rat tail collagen type I-coated 24 well culture plates (IWAKI, Tokyo, Japan) initial seeding was carried out at 1 × 10^5 cells/well for the uptake study. After incubation for 2 days at 33 °C, the cultures became confluent and then they were used in the transport study. L-Citrulline free medium was used all experiments except for experiments on saturation kinetics of [^14C]L-citrulline uptake (Fig. 2), Lineweaver-Burk plots for [^14C]L-citrulline uptake (Fig. 4), or inhibitory effect of L-amino acids as a control (Table 2).
# (§2) The [^14C] L-citrulline uptake study was performed according to the previous report. Briefly, extracellular fluid (ECF) buffer containing [^14C]L-citrulline (44.4 μM) in the presence or absence of unlabeled inhibitors was added to the TR-BBB cells and then incubated at pH 7.4 and 37 °C for the designated time (5 min). Uptake was terminated by the addition of ice-cold ECF buffer. A Na^+ free transport medium was prepared by using LiCl, choline chloride, sodium gluconate and KHCO3 instead of NaCl and NaHCO3, respectively. The cells were then solubilized by incubation overnight in 750 μL of 1 N NaOH at room temperature, and the measurement of radioactivity was performed in a liquid scintillation counter (LS6500; Beckman, Fullerton, CA). Cell to medium ratio (μL/mg protein) was calculated as follows: the radioactivity (dpm/μL) in the sample per milligram cell protein (dpm/mg protein).
# To analyze the competitive nature of L-dopa and gabapentin for [^14C]L-citrulline uptake, Lineweaver-Burk plots were generated. The inhibitory constant (K i) was calculated from Eq. (2):2 V=Vmax⋅C/Km⋅1+I/Ki+C where I corresponds to the concentration of L-dopa or gabapentin, respectively.
# [2] = tested on: TR-BBB cells; assay: [14C]L-citrulline uptake study in TR-BBB cells (time course, ion dependence, saturation kinetics); assay type: in vitro ADME, rat; settings: for Uptake of [14C]L-citrulline (% of control): ion dependence: Na+ and/or Cl- replaced in the uptake buffer by the named salt, mean ± S.E.M.
# Protocol: as §1, §2
# For kinetic studies, the Michaelis-Menten constant (K m) and the maximum uptake rate (V max) of [^14C] L-citrulline were estimated from Eq. (1):1 V=Vmax⋅C/Km+C
# Where V and C are the initial uptake rate of [^14C] L-citrulline at 5 min and the concentration of L-citrulline, and V max is the maximum uptake rate for the saturable component.
# [3] = Table 4, drug 2 mM, pH 7.4, 37 °C, mean ± S.E.M., read-out: Uptake of [14C]L-citrulline (% of control)
# [4] = pH 7.4, read-out: IC50 for inhibition of [14C]L-citrulline uptake
# [5] = Table 4, drug 0.5 mM, pH 7.4, 37 °C, mean ± S.E.M.
# [6] = Table 3, transporter inhibitor 2 mM, pH 7.4, 37 °C, mean ± S.E.M.
# [7] = Table 2, L-amino acid 2 mM, pH 7.4, 37 °C, mean ± S.E.M.
# [8] = pH 7.4, read-out: Uptake of [14C]L-citrulline (% of control), Table 2, L-amino acid 2 mM, pH 7.4, 37 °C, mean ± S.E.M.
# [9] = Table 2, L-amino acid 2 mM, pH 7.4, 37 °C, mean ± S.E.M., read-out: Uptake of [14C]L-citrulline (% of control)
# [10] = TR-BBB cells, pH 7.4, 37 °C, read-out: IC50 for inhibition of [14C]L-citrulline uptake
# [11] = Table 2, L-amino acid 20 mM, pH 7.4, 37 °C, mean ± S.E.M.
smiles,measurement,setting,value
"NC1(C(=O)O)CC2CCC1C2 (centres unmarked) [BCH, 2-aminobicyclo-(2,2,1)-heptane-2-carboxylic acid]",activity at 2000 µM,"[1]; Table 3, transporter inhibitor 2 mM, pH 7.4, 37 °C, mean ± S.E.M., read-out: Uptake of [14C]L-citrulline (% of control)",25.3 ± 4.4%
same,activity at 20000 µM,"[1]; Table 3, transporter inhibitor 20 mM, pH 7.4, 37 °C, mean ± S.E.M., read-out: Uptake of [14C]L-citrulline (% of control)",28.1 ± 11.6%
same,Effect on [14C]L-citrulline uptake,[1]; TR-BBB cells,markedly inhibited
same,Decrease of [14C]L-citrulline uptake,[1],about 75%
"C[N+](C)(C)CCO.[Cl-] [Choline Chloride, choline chloride]",Uptake of [14C]L-citrulline (% of control),"[2]; pH 7.4, 37 °C, 5 min",83.3 ± 5.7 % of control
NCCc1ccc(O)c(O)c1 [Dopamine],activity at 2000 µM,[1]; [3],110 ± 2.7%
same,Effect on [14C]L-citrulline uptake,[1]; TR-BBB cells,no effect; also recorded: no significant effects
NCC1(CC(=O)O)CCCCC1 [Gabapentin],Mode of inhibition of [14C]L-citrulline uptake,[1],competitively inhibited
same,Ki,"[1]; pH 7.4, 37 °C",679 µM
same,IC50,[1]; [4],223 µM
same,Effect on [14C]L-citrulline uptake,[1]; TR-BBB cells,strongly inhibited; also recorded: significantly inhibited
same,Uptake of [14C]L-citrulline (% of control),[1]; [5],45.0 ± 2.52 % of control
same,Uptake of [14C]L-citrulline (% of control),"[1]; Table 4, drug 5 mM, pH 7.4, 37 °C, mean ± S.E.M.",29.6 ± 2.73 % of control
COc1ccc2c3c([nH]c2c1)C(C)=NCC3 [Harmaline],Decrease of [14C]L-citrulline uptake,[1],about 40%
NC(N)=NCCCC[C@H](N)C(=O)O [Homoarginine],Effect on [14C]L-citrulline uptake,[1]; TR-BBB cells,no inhibition effect
same,Uptake of [14C]L-citrulline (% of control),[1]; [6],95.98 ± 13.8 % of control
C[C@H](N)C(=O)O [L-Alanine],Effect on [14C]L-citrulline uptake,[1]; TR-BBB cells,significantly inhibited
same,Uptake of [14C]L-citrulline (% of control),[1]; [7],73.0 ± 6.4 % of control
N=C(N)NCCC[C@H](N)C(=O)O [L-Arginine],IC50,[1]; [4],33400 µM
same,activity at 2000 µM,[1]; [8],59.9 ± 6.6%
same,activity at 20000 µM,"[1]; pH 7.4, read-out: Uptake of [14C]L-citrulline (% of control), Table 2, L-amino acid 20 mM, pH 7.4, 37 °C, mean ± S.E.M.",53.2 ± 4.4%
same,Effect on [14C]L-citrulline uptake,[1]; TR-BBB cells,significantly inhibited
"N[C@@H](CC(=O)O)C(=O)O [L-Aspatate, L-aspartate]",Effect on [14C]L-citrulline uptake,[1]; TR-BBB cells,did not inhibit
same,Uptake of [14C]L-citrulline (% of control),[1]; [7],101.5 ± 8.6 % of control
NC(=O)NCCC[C@H](N)C(=O)O [L-Citrulline],Time-course of [14C]L-citrulline uptake,"[2]; 44.4 μM, 37 °C, ECF buffer",linear for 5 min
same,Ion dependence of [14C]L-citrulline uptake,[2]; absence of Na+ or Cl- in the uptake buffer,no significant difference
same,Michaelis-Menten constant Km1 of [14C]L-citrulline uptake,"[2]; first (Km1) of two saturable components, 0–5 mM unlabeled L-citrulline, 5 min, pH 7.4, 37 °C",30.9 ± 1.0 µM and 30.9 µM
same,Vmax1 of [14C]L-citrulline uptake,"[2]; first saturable component, 5 min, pH 7.4, 37 °C",185 nmol/mg/min
same,Michaelis-Menten constant Km2 of [14C]L-citrulline uptake,"[2]; second (Km2) of two saturable components, 0–5 mM unlabeled L-citrulline, 5 min, pH 7.4, 37 °C",1.69 ± 0.43 mM and 1.69 mM
same,Vmax2 of [14C]L-citrulline uptake,"[2]; second saturable component, 5 min, pH 7.4, 37 °C",3.19 µmol/mg/min
same,activity at 2000 µM,[1]; [8],36 ± 2.1%
N[C@@H](CS)C(=O)O [L-Cysteine],activity at 2000 µM,[1]; [9],48.4 ± 2.6%
same,Effect on [14C]L-citrulline uptake,[1]; TR-BBB cells,significantly inhibited
N[C@@H](Cc1ccc(O)c(O)c1)C(=O)O [L-Dopa],Mode of inhibition of [14C]L-citrulline uptake,[1],competitively inhibited
same,Ki,"[1]; pH 7.4, 37 °C",486 µM
same,IC50,[1]; [10],501 µM
same,Effect on [14C]L-citrulline uptake,[1]; TR-BBB cells,strongly inhibited; also recorded: significantly inhibited
same,Uptake of [14C]L-citrulline (% of control),[1]; [5],52.1 ± 6.6 % of control
same,Uptake of [14C]L-citrulline (% of control),"[1]; Table 4, drug 2 mM, pH 7.4, 37 °C, mean ± S.E.M.",21.6 ± 2.8 % of control
N[C@@H](CCC(=O)O)C(=O)O [L-Glutamate],activity at 2000 µM,"[1]; pH 7.4, read-out: Uptake of [14C]L-citrulline (% of control)",103 ± 7.8%
same,Effect on [14C]L-citrulline uptake,[1]; TR-BBB cells,did not inhibit
NC(=O)CC[C@H](N)C(=O)O [L-Glutamine],activity at 2000 µM,[1]; [9],37.5 ± 1.3%
CC(C)C[C@H](N)C(=O)O [L-Leucine],Uptake of [14C]L-citrulline (% of control),[1]; [7],49.4 ± 5.8 % of control
same,Uptake of [14C]L-citrulline (% of control),[1]; [11],17.2 ± 3.9 % of control
NCCCC[C@H](N)C(=O)O [L-Lysine],Effect on [14C]L-citrulline uptake,[1]; TR-BBB cells,significantly inhibited
same,Uptake of [14C]L-citrulline (% of control),[1]; [7],74.5 ± 9.0 % of control
same,Uptake of [14C]L-citrulline (% of control),[1]; [11],66.78 ± 2.1 % of control
N[C@@H](Cc1ccccc1)C(=O)O [L-Phenylalanine],IC50,[1]; [10],68.9 µM
same,Effect on [14C]L-citrulline uptake,[1]; TR-BBB cells,strongly inhibited
same,Uptake of [14C]L-citrulline (% of control),[1]; [7],13.7 ± 1.8 % of control
same,Uptake of [14C]L-citrulline (% of control),[1]; [11],13.4 ± 1.4 % of control
N[C@@H](CO)C(=O)O [L-Serine],activity at 2000 µM,[1]; [9],79.7 ± 2.5%
same,Effect on [14C]L-citrulline uptake,[1]; TR-BBB cells,significantly inhibited
CC(C)[C@H](N)C(=O)O [L-Valine],Uptake of [14C]L-citrulline (% of control),[1]; [7],31.5 ± 1.4 % of control
[Cl-].[Li+] [LiCl],Uptake of [14C]L-citrulline (% of control),"[2]; pH 7.4, 37 °C, 5 min",116.2 ± 5.2 % of control
"CNC(C)(C)C(=O)O [MeAIB, N-(methylamino) isobutyric acid]",Effect on [14C]L-citrulline uptake,[1]; TR-BBB cells,no inhibition effect
same,Uptake of [14C]L-citrulline (% of control),[1]; [6],99.8 ± 6.3 % of control
"CN1C(=O)C=CC1=O [Methylmaleimide, L-methylmaleimide]",Effect on [14C]L-citrulline uptake,[1]; TR-BBB cells,no inhibition effect
same,Uptake of [14C]L-citrulline (% of control),[1]; [6],103.2 ± 10.1 % of control
"C=C[C@H]1C[N@@]2CC[C@H]1C[C@@H]2[C@@H](O)c1ccnc2ccc(OC)cc12 [Qunidine, Quinidine]",Uptake of [14C]L-citrulline (% of control),[1]; 500 µM,52.5 ± 3.0 % of control
same,Effect on [14C]L-citrulline uptake,[1]; TR-BBB cells,significantly inhibited
"O=C([O-])[C@H](O)[C@@H](O)[C@H](O)[C@H](O)CO.[Na+] [Sodium gluconate, sodium gluconate]",Uptake of [14C]L-citrulline (% of control),"[2]; pH 7.4, 37 °C, 5 min",103.9 ± 6.8 % of control
NCCS(=O)(=O)O [Taurine],activity at 2000 µM,[1]; [3],90.5 ± 4.4%
same,Effect on [14C]L-citrulline uptake,[1]; TR-BBB cells,no significant effects
Nc1c2c(nc3ccccc13)CCCC2 [tacrine],Effect on [14C]L-citrulline uptake,[1]; TR-BBB cells,no significant inhibition effect
